Measurements as given in patent EP4562004B1, “NOVEL 7-SUBSTITUTED INDOLE SULFONAMIDE DERIVATIVES” (F. Hoffmann-La Roche AG, priority 2022, dated 2024).
pIC50: −log10 of the molar value.

Molecular target: human GPR17 short isoform (Homo sapiens, UniProt Q13304)
Assay: GPR17 cAMP assay (antagonist mode, TR-FRET cAMP detection)
Format: cell-based
Details: CHO-K1 cells stably expressing human GPR17 short isoform; with EC80 concentration of agonist MDL29,951, IBMX 0.5mM, forskolin 15µM; normalized to reference antagonist; read-out: hGPR17 cAMP IC50
Method: CHO-K1 cells stably expressing vector containing untagged human GPR17 short isoform (Roche) were cultured at 37°C / 5% CO2 in DMEM (Dulbecco's Modified Eagle Medium):F-12 (1:1) supplemented with 10% foetal bovine serum and 400 µg/ml Geneticin.
Changes in intracellular cyclic adenosine monophosphate (cAMP) levels were quantified using the Nano-TRF Detection Assay kit (Roche Diagnostics, Cat. No. 05214386001). This assay allows for direct cAMP quantification in a homogeneous solution. cAMP is detected based on time-resolved fluorescence energy transfer (TR-FRET) and competitive binding of ruthenylated cAMP and endogenous cAMP to an anti-cAMP monoclonal antibody labeled with AlexaFluor-700. The Ruthenium complex serves as the FRET donor and transfers energy to AlexaFluor-700. The FRET signal is inversely proportional to the cAMP concentration.
CHO-GPR17S cells were detached with Accutase and resuspended in assay buffer consisting of Hank's Balanced Salt Solution (HBSS), 10mM HEPES (4-(2-hydroxyethyl) piperazine-1-ethanesulfonic acid solution) and 0.1% bovine serum albumin (pH 7.4). The cells were seeded in black 384-well plates (Corning) at a density of 10'000 cells / 20µl assay buffer until the addition of compounds.
Test antagonist compounds were serially diluted in dimethyl sulfoxide (DMSO) and spotted in 384-well plates. The compounds were then diluted in HBSS buffer supplemented with an EC80 concentration of MDL29,951 (3-(2-Carboxy-4,6-dichloroindol-3-yl)propionic acid) (GPR17 agonist) plus 3-Isobutyl-1-methylxanthine (IBMX) (0.5mM final concentration) and added to the cells at room temperature. Forskolin (15µM final concentration) was added 5 minutes after the test compounds and the cells were incubated at room temperature for 30 minutes. The assay was stopped by adding cAMP detection mix (containing detergents for cell lysis) for 90 minutes at room temperature.
Cellular cAMP was measured using a Paradigm reader (Molecular Devices). The raw data was used to calculate the FRET signal based on the assay's P-factor as per cAMP kit instructions. The data was normalized to the maximal activity of a reference antagonist and dose response curves were fitted to the percent activity of the test compounds using a sigmoidal dose response model (Genedata Screener).
Results in the hGPR17 cAMP assay are provided for compounds of formula I in Table 1 Table 1: […]

Chain of human GPR17 short isoform (Q13304 29-367): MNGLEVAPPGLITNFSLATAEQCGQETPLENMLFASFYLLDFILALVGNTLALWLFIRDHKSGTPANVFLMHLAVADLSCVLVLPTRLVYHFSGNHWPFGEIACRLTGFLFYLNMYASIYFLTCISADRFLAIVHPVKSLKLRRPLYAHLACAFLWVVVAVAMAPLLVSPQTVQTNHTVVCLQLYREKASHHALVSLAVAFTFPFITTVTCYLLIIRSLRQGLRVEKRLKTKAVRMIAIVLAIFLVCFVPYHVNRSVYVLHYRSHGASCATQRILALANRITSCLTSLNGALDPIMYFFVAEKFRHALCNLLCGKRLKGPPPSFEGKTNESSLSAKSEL

Row | pIC50 | Structure (SMILES)
1 | 7.16 | COc1nc(NS(=O)(=O)c2c[nH]c3c(-n4cc(F)cn4)c(Cl)ccc23)nc(OC)c1OC(F)F [Example 48, 6-chloro-N-[5-(difluoromethoxy)-4,6-dimethoxy-pyrimidin-2-yl]-7-(4-fluoropyrazol-1-yl)-1H-indole-3-sulfonamide]
2 | 7.47 | COc1nc(NS(=O)(=O)c2c[nH]c3c(-n4ncc(C)n4)c(Cl)ccc23)nc(OC)c1OCC(F)F [Example 38, 6-chloro-N-[5-(2,2-difluoroethoxy)-4,6-dimethoxy-pyrimidin-2-yl]-7-(4-methyltriazol-2-yl)-1H-indole-3-sulfonamide]
3 | 7.17 | COc1nc(NS(=O)(=O)c2c[nH]c3c(-n4cccn4)c(C)ccc23)nc(OC)c1OCCF [Example 82, N-[5-(2-fluoroethoxy)-4,6-dimethoxy-pyrimidin-2-yl]-6-methyl-7-pyrazol-1-yl-1H-indole-3-sulfonamide]
4 | 7.57 | COc1nc(NS(=O)(=O)c2c[nH]c3c(-n4nccn4)c(Br)ccc23)nc(OC)c1OCCF [Example 28, 6-bromo-N-[5-(2-fluoroethoxy)-4,6-dimethoxy-pyrimidin-2-yl]-7-(triazol-2-yl)-1H-indole-3-sulfonamide]
5 | 7.46 | COc1nc(NS(=O)(=O)c2c[nH]c3c(-n4nccn4)c(C)ccc23)nc(OC)c1OCCF [Example 23, N-[5-(2-fluoroethoxy)-4,6-dimethoxy-pyrimidin-2-yl]-6-methyl-7-(triazol-2-yl)-1H-indole-3-sulfonamide]
6 | 7.30 | COc1nc(NS(=O)(=O)c2c[nH]c3c(-n4ccnc4)c(Cl)ccc23)nc(OC)c1OCC(F)F [Example 6, 6-chloro-N-[5-(2,2-difluoroethoxy)-4,6-dimethoxy-pyrimidin-2-yl]-7-imidazol-1-yl-1H-indole-3-sulfonamide]
7 | 7.31 | COc1nc(NS(=O)(=O)c2c[nH]c3c(-n4nccn4)c(Cl)ccc23)nc(OC)c1OCC#N [Example 60, 6-chloro-N-[5-(cyanomethoxy)-4,6-dimethoxy-pyrimidin-2-yl]-7-(triazol-2-yl)-1H-indole-3-sulfonamide]
8 | 7.38 | [2H]C([2H])(F)C([2H])([2H])Oc1c(OC)nc(NS(=O)(=O)c2c[nH]c3c(-n4nccn4)c(Cl)ccc23)nc1OC [Example 85, 6-chloro-N-[4,6-dimethoxy-5-(1,1,2,2-tetradeuterio-2-fluoro-ethoxy)pyrimidin-2-yl]-7-(triazol-2-yl)-1H-indole-3-sulfonamide]
9 | 7.31 | COc1nc(NS(=O)(=O)c2c[nH]c3c(-n4ccc(F)n4)c(Cl)ccc23)nc(OC)c1OCCF [Example 56, 6-chloro-N-[5-(2-fluoroethoxy)-4,6-dimethoxy-pyrimidin-2-yl]-7-(3-fluoropyrazol-1-yl)-1H-indole-3-sulfonamide]
10 | 7.57 | COc1nc(NS(=O)(=O)c2c[nH]c3c(-n4ccc(F)n4)c(Cl)ccc23)nc(OC)c1OC(F)F [Example 54, 6-chloro-N-[5-(difluoromethoxy)-4,6-dimethoxy-pyrimidin-2-yl]-7-(3-fluoropyrazol-1-yl)-1H-indole-3-sulfonamide]

The remaining lines, values behind:

Row | Structure (SMILES) | pIC50
11 | COc1nc(NS(=O)(=O)c2c[nH]c3c(-n4nccn4)c(Cl)ccc23)nc(OC)c1OC(F)(F)CF [Example 57, 6-chloro-N-[4,6-dimethoxy-5-(1,1,2-trifluoroethoxy)pyrimidin-2-yl]-7-(triazol-2-yl)-1H-indole-3-sulfonamide] | 7.07
12 | COc1nc(NS(=O)(=O)c2c[nH]c3c(-n4nccn4)c(C)ccc23)nc(OC)c1OC(F)F [Example 24, N-[5-(difluoromethoxy)-4,6-dimethoxy-pyrimidin-2-yl]-6-methyl-7-(triazol-2-yl)-1H-indole-3-sulfonamide] | 7.42
13 | COc1nc(NS(=O)(=O)c2c[nH]c3c(-n4ccnn4)c(Cl)ccc23)nc(OC)c1CC(F)F [Example 40, 6-chloro-N-[5-(2,2-difluoroethyl)-4,6-dimethoxy-pyrimidin-2-yl]-7-(triazol-1-yl)-1H-indole-3-sulfonamide] | 7.40
14 | COc1nc(NS(=O)(=O)c2c[nH]c3c(-n4cccn4)c(Br)ccc23)nc(OC)c1CC(F)F [Example 81, 6-bromo-N-[5-(2,2-difluoroethyl)-4,6-dimethoxy-pyrimidin-2-yl]-7-pyrazol-1-yl-1H-indole-3-sulfonamide] | 7.74
15 | COc1nc(NS(=O)(=O)c2c[nH]c3c(-n4nccn4)c(Cl)ccc23)nc(OC)c1CCC#N [Example 61, 6-chloro-N-[5-(2-cyanoethyl)-4,6-dimethoxy-pyrimidin-2-yl]-7-(triazol-2-yl)-1H-indole-3-sulfonamide] | 7.54
16 | COc1nc(NS(=O)(=O)c2c[nH]c3c(-n4nccn4)c(Br)ccc23)nc(OC)c1CC(F)F [Example 27, 6-bromo-N-[5-(2,2-difluoroethyl)-4,6-dimethoxy-pyrimidin-2-yl]-7-(triazol-2-yl)-1H-indole-3-sulfonamide] | 7.72
17 | COc1nc(NS(=O)(=O)c2c[nH]c3c(-n4nccn4)c(F)ccc23)nc(OC)c1OCC(F)F [Example 35, N-[5-(2,2-difluoroethoxy)-4,6-dimethoxy-pyrimidin-2-yl]-6-fluoro-7-(triazol-2-yl)-1H-indole-3-sulfonamide] | 6.90
18 | COc1nc(NS(=O)(=O)c2c[nH]c3c(-n4ccnc4C)cccc23)nc(OC)c1CC(F)F [Example 5, N-[5-(2,2-difluoroethyl)-4,6-dimethoxy-pyrimidin-2-yl]-7-(2-methylimidazol-1-yl)-1H-indole-3-sulfonamide] | 7.32
19 | COc1nc(NS(=O)(=O)c2c[nH]c3c(-n4nccn4)c(F)ccc23)nc(OC)c1OC(F)F [Example 34, N-[5-(difluoromethoxy)-4,6-dimethoxy-pyrimidin-2-yl]-6-fluoro-7-(triazol-2-yl)-1H-indole-3-sulfonamide] | 6.65
20 | COc1nc(NS(=O)(=O)c2c[nH]c3c(-n4ccnc4)c(Cl)ccc23)ncc1CC(F)F [Example 8, 6-chloro-N-[5-(2,2-difluoroethyl)-4-methoxy-pyrimidin-2-yl]-7-imidazol-1-yl-1H-indole-3-sulfonamide] | 6.61
21 | COc1nc(NS(=O)(=O)c2c[nH]c3c(-n4nccn4)c(C)ccc23)nc(OC)c1C1CC1C#N (stereo not shown) [Example 26, N-[5-(2-cyanocyclopropyl)-4,6-dimethoxy-pyrimidin-2-yl]-6-methyl-7-(triazol-2-yl)-1H-indole-3-sulfonamide] | 7.60
22 | COc1nc(NS(=O)(=O)c2c[nH]c3c(-n4cncn4)c(Cl)ccc23)nc(OC)c1CC(F)F [Example 37, 6-chloro-N-[5-(2,2-difluoroethyl)-4,6-dimethoxy-pyrimidin-2-yl]-7-(1,2,4-triazol-1-yl)-1H-indole-3-sulfonamide] | 7.22
23 | COc1nc(NS(=O)(=O)c2c[nH]c3c(-n4cccn4)c(Cl)ccc23)nc(OC)c1C1CC1C#N (stereo not shown) [Example 73, 6-chloro-N-[5-(2-cyanocyclopropyl)-4,6-dimethoxy-pyrimidin-2-yl]-7-pyrazol-1-yl-1H-indole-3-sulfonamide] | 7.39
24 | COc1nc(NS(=O)(=O)c2c[nH]c3c(-n4nccn4)c(Cl)ccc23)nc(OC)c1OC(C)(C)CF [Example 58, 6-chloro-N-[5-(2-fluoro-1,1-dimethyl-ethoxy)-4,6-dimethoxy-pyrimidin-2-yl]-7-(triazol-2-yl)-1H-indole-3-sulfonamide] | 5.90
25 | [2H]C([2H])(c1cnc(NS(=O)(=O)c2c[nH]c3c(-n4nccn4)c(Cl)ccc23)nc1OC)C(F)F [Example 79, 6-chloro-N-[5-(1,1-dideuterio-2,2-difluoroethyl)-4-methoxy-pyrimidin-2-yl]-7-(triazol-2-yl)-1H-indole-3-sulfonamide] | 7.44
26 | COc1nc(NS(=O)(=O)c2c[nH]c3c(-n4nccn4)cccc23)nc(OC)c1C1CC1C#N (stereo not shown) [Example 21, N-[5-(2-cyanocyclopropyl)-4,6-dimethoxy-pyrimidin-2-yl]-7-(triazol-2-yl)-1H-indole-3-sulfonamide] | 6.71
27 | COc1nc(NS(=O)(=O)c2c[nH]c3c(-n4cccn4)c(C(F)F)ccc23)nc(OC)c1CC(F)F [Example 52, N-[5-(2,2-difluoroethyl)-4,6-dimethoxy-pyrimidin-2-yl]-6-(difluoromethyl)-7-pyrazol-1-yl-1H-indole-3-sulfonamide] | 7.17
28 | COc1nc(NS(=O)(=O)c2c[nH]c3c(-n4nccn4)c(Cl)ccc23)nc(OC)c1CCC(F)F [Example 17, 6-chloro-N-[5-(3,3-difluoropropyl)-4,6-dimethoxy-pyrimidin-2-yl]-7-(triazol-2-yl)-1H-indole-3-sulfonamide] | 7.62
